Earlier results as cited in patent US7576133B2, “Methods and compositions for nasal administration of modafinil” (priority 2002, dated 2009).

## NC(=O)C[S+]([O-])C(c1ccccc1)c1ccccc1 (racemic) [Modafinil, 2-[(diphenylmethyl)sulfinyl] acetamide]
Lower alcohols
  solubility in lower alcohols: slightly soluble
water
  solubility in water: practically insoluble
